This is an account of results in patent US6218431A, “Substituted biphenyls” (Bayer Corporation, priority 1997, dated 2001).

The target in one experiment is T1, glucagon receptor (Homo sapiens, UniProt P47871).
T1 construct: expressed in transfected cells; host or cells: Chinese Hamster Ovary cells (CHO-HGR), membranes
T1 sequence (P47871 26-477): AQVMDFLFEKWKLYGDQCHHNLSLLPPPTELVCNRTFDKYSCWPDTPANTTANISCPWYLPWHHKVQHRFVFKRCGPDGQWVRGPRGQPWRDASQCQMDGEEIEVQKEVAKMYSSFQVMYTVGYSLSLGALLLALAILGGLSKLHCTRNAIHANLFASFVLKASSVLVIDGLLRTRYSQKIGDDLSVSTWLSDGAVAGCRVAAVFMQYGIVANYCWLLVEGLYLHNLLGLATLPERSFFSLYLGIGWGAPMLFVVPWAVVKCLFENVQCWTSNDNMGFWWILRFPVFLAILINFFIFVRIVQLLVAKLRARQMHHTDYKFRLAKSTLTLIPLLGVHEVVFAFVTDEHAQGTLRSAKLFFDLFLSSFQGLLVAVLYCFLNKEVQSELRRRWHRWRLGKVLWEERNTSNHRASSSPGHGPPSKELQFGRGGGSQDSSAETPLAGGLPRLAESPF
Briefly: glucagon receptor binding assay (125I-glucagon, CHO-HGR membranes). The conditions noted are these: 20 μM; reported where 20 μM did not reduce glucagon binding by 50%. In short, it runs like this: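 Membranes from CHO cells expressing glucagon receptor (10 ug protein) in Tris pH 7.4 buffer with EDTA, BSA and bacitracin, incubated with test compound and 125I-glucagon (9 fmol) 60 min at room temperature. Bound radioactivity counted after filtration; nonspecific binding defined with 1 μM native glucagon; 0.5% DMSO.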
What is called inhibition is the drop in the measured response relative to a control, in per cent. A lower inhibition goes with a weak effect. `CCCCCc1c(C(C)C)nc(C(C)C)c(CO)c1-c1ccc(Cl)cc1Cl` [Example 148, 2,6-Diisopropyl-3-hydroxymethyl-4-(2,4-dichlorophenyl)-5-pentylpyridine] returned an inhibition at 20 µM of 7.78%.
Same read-out and setting: in the case of `CC(C)c1nc(C(C)C)c(CCCCCCCN(C)C)c(-c2ccc(F)cc2)c1CO` [Example 90] it was 29.1%; in that of `COC(=O)c1c(C(C)C)nc(C(C)C)c(CN2CCC(N3CCCCC3)CC2)c1-c1ccc(F)cc1` [Example 73, Methyl-2,6-diisopropyl-4-(4-fluorophenyl)-5-(4piperidinopiperidin-1-yl)methyl-3-pyridinecarboxylate], 17.5%.
With `CC(C)c1nc(C(C)C)c(CCCN(C)C)c(-c2ccc(F)cc2)c1CO` [Example 89, 2,6-Diisopropyl-3-hydroxymethyl-4-(4fluorophenyl)-5-[(3-dimethyl-amino)propyl]pyridine], the inhibition at 20 µM came out at 36%.
On to `CCCC=Cc1c(C(C)C)nc(C(C)C)c(CO)c1-c1cccc(Cl)c1` [Example 145, 2,6-Diisopropyl-3-hydroxymethyl-4-(3-chlorophenyl)-5-(pent-1-enyl)-pyridine], for which the inhibition at 20 µM came to 41.4%.
Same read-out and setting: in the case of `CCCCCc1c(C(C)C)nc(C(C)C)c(CO)c1-c1ccc(C(F)(F)F)cc1` [Example 126, 2,6-Diisopropyl-3-hydroxymethyl-4-[(4-trifluoromethyl)phenyl]-5-pentylpyridine] it was 35.3%.
The same measure, in the same setting: in the case of `CCC(O)c1c(C(C)C)nc(C(C)C)c(CO)c1-c1ccc(F)cc1` (racemic) [Example 94, (±)-2,6-Diisopropyl-3-hydroxymethyl-4-(4-fluorophenyl)-5-(1-hydroxy-propyl)pyridine] it was 38.5%; in that of `CCCCCc1c(CO)nc(C(C)C)c(CO)c1-c1ccc(F)cc1` [Example 200, 2,5-Bis(hydroxymethyl)-3-pentyl-4-(4-fluorophenyl)-6-isopropylpyridine], 32.8%.
In turn, `CC(C)c1nc(C(C)C)c(C(O)C(C)C)c(-c2ccc(F)cc2)c1CO` (racemic) [Example 97, (±)-2,6-Diisopropyl-3-hydroxymethyl-4-(4-fluorophenyl)-5-[(1-hydroxy-2-methyl)propyl]pyridine] registered an inhibition at 20 µM of 29.2%.

Still in this experiment, the particulars now being: 125I-glucagon; 60 min at room temperature; read-out: IC50.
By IC50 is commonly meant the concentration that gives 50% inhibition. With `CCCCc1c(C(C)C)nc(C(C)C)c(CO)c1-c1ccccc1` [Example 18, 2,6-Diisopropyl-3-hydroxymethyl-4-phenyl-5-butylpyridine], the IC50 worked out at 0.75 µM.
On the same count and under the same terms, in the case of `Cc1c(F)c(F)c(SCc2c(C(C)C)cc(C(C)C)c(CO)c2-c2ccc(F)cc2)c(F)c1F` [Example 286] it was 18 µM; in that of `CCc1c(C(C)C)cc(C(C)C)c(C(C)O)c1-c1ccc(F)cc1O` (centres unmarked) [Example 246, 3,5-Diisopropyl-2-(1-hydroxyethyl)-6-ethyl-4'-fluoro-2'-hydroxy-1,1'-biphenyl], 0.011 µM.
Same read-out and setting: in the case of `CCc1ccc(SCc2c(C(C)C)nc(C(C)C)c(CO)c2-c2ccc(F)cc2)cc1` [Example 62, 2,6-Diisopropyl-3-hydroxymethyl-4-(4-fluorophenyl)-5-[(4-ethyl-phenyl)thio]methylpyridine] it was 1.1 µM; in that of `C=Cc1c(C(C)C)nc(C(C)C)c(CO)c1-c1ccc(F)cc1` [Example 22, 2,6Diisopropyl-3-hydroxymethyl-4-(4-fluorophenyl)-5-ethenylpyridine], 1.1 µM.
Still for that read-out and setting: in the case of `CC(C)c1nc2c(c(-c3ccc(F)cc3)c1C(C)O)CCC2(C)C` (centres unmarked) [Example 235, 2-Isopropyl-3-(1-hydroxyethyl)-4-(4-fluorophenyl)-7,7-dimethyl-5H-cyclopenta[b]pyridine] it was 3.1 µM; in that of `CC(C)c1nc(C(C)C)c(CNC2CC2)c(-c2ccc(F)cc2)c1CO` [Example 77, 2,6-Diisopropyl-3-hydroxymethyl-4-(4-fluorophenyl)-5-(cyclopropyl-amino)methylpyridine], 6 µM.
Turning to `CC(C)c1nc(C(C)C)c(CCCC2OCCO2)c(-c2ccc(F)cc2)c1CO` [Example 46], the IC50 is 9 µM.
On the same count and under the same terms, in the case of `CC(C)c1ccc(SCc2c(C(C)C)nc(C(C)C)c(CO)c2-c2ccc(F)cc2)cc1` [Example 63, 2,6-Diisopropyl-3-hydroxymethyl-4-(4-fluorophenyl)-5-[(4-isopropyl-phenyl)thio]methylpyridine] it was 1.7 µM.
In the case of `CCCCCc1c(C(C)C)nc(C(C)C)c(C(O)CO)c1-c1ccc(F)cc1` (racemic) [Example 124, (±)-2,6-Diisopropyl-3-(1,2-dihydroxyethyl)-4-(4-fluorophenyl)-5-pentyl-pyridine], the IC50 was found to be 12 µM.
On the same count and under the same terms, in the case of `CCCc1c(C(C)C)cc(C(C)C)c(C(C)O)c1-c1ccc(F)cc1O` (centres unmarked) [Example 242, 3,5-Diisopropyl-2-(1-hydroxyethyl)-6-propyl-4'-fluoro-2'-hydroxy-1,1'-biphenyl] it was 0.005 µM; in that of `Cc1c(C(C)C)nc(C(C)C)c(CO)c1-c1ccc(F)cc1` [Example 81], 7.5 µM; in that of `Cc1ccccc1CCCc1c(C(C)C)nc(C(C)C)c(CO)c1-c1ccc(F)cc1` [Example 84, 2,6-Diisopropyl-3-hydroxymethyl-4-(4-fluorophenyl)-5-[3-(2-methylphenyl)propyl]pyridine], 1.9 µM.
On the same count and under the same terms, in the case of `CCCCCc1c(C(C)=O)nc(C(C)C)c(CO)c1-c1ccc(F)cc1` [Example 218, 2-Acetyl-3-pentyl-4-(4-fluorophenyl)-5-hydroxymethyl-6-isopropylpyridine] it was 6.5 µM; in that of `CC(C)c1nc(C(C)C)c(CSc2ccc(F)cc2)c(-c2ccc(F)cc2)c1CO` [Example 49, 2,6-Diisopropyl-3-hydroxymethyl-4-(4-fluorophenyl)-5-[(4-fluoro-phenyl)thio]methylpyridine], 1.1 µM; in that of `Cc1ccccc1SCc1c(C(C)C)nc(C(C)C)c(CO)c1-c1ccc(F)cc1` [Example 58, 2,6Diisopropyl-3-hydroxymethyl-4-(4-fluorophenyl)-5-[(2-methyl-phenyl)thio]methylpyridine], 1.5 µM.
Same read-out and setting: in the case of `CC(C)c1nc(C(C)C)c(CC=Cc2ccccc2)c(-c2ccc(F)cc2)c1CO` [Example 82, 2,6-Diisopropyl-3-hydroxymethyl-4-(4-fluorophenyl)-5-(3-phenyl-2-propenyl)pyridine] it was 1.9 µM; in that of `CC(C)c1nc2c(c(-c3ccc(F)cc3)c1CO)CCC2(C)C` [Example 234, 2-Isopropyl-3-hydroxymethyl-4-(4-fluorophenyl)-7,7-dimethyl-5H-cyclopenta[b]pyridine], 8 µM.
`CCCC=Cc1c(C(C)C)nc(C(C)C)c(CO)c1-c1cccc(C)c1` [Example 139, 2,6-Diisopropyl-3-hydroxymethyl-4-(3-methylphenyl)-5-(pent-1-enyl)-pyridine]: the IC50 came out at 17 µM.
As for `CCCCCc1c(CC(C)C)nc(C(C)C)c(CO)c1-c1ccc(F)cc1` [Example 228, 2-Isopropyl-3-hydroxymethyl-4-(4-fluorophenyl)-5-pentyl-6-(2-methylpropyl)pyridine], the IC50 came out at 2 µM.
Still for that read-out and setting: in the case of `CC=Cc1c(C(C)C)nc(C(C)C)c(CO)c1-c1ccc(F)cc1` [Example 21, 2,6-Diisopropyl-3-hydroxymethyl-4-(4-fluorophenyl)-5-(1-propenyl)-pyridine] it was 0.8 µM; in that of `CC(C)c1nc(C(C)C)c(CSc2ccccc2)c(-c2ccc(F)cc2)c1CO` [Example 47, 2,6Diisopropyl-3-hydroxymethyl-4-(4fluorophenyl)-5[(phenylthio)-methyl]pyridine], 1.5 µM.
Still for that read-out and setting: in the case of `CCCCCc1c(C(C)C)nc(C(C)C)c(CO)c1-c1ccccc1O` [Example 163, 2,6-Diisopropyl-3-hydroxymethyl-4-(2-hydroxyphenyl)-5-pentylpyridine] it was 0.5 µM.

The same experiment, now with this note: IC50, 125I-glucagon; 60 min at room temperature.
On to `CCCCCc1c(C)nc(C(C)C)c(CO)c1-c1ccc(F)cc1` [Example 197, 2-Isopropyl-3-hydroxymethyl-4-(4-fluorophenyl)-5-pentyl-6-methyl-pyridine], for which the IC50 came out at 7 µM.

A further experiment concerns rat liver membrane.
Experiment: not given
The conditions noted are these: Collins et al. 1992; cited from earlier work.
`CN(C)CCCN(C)c1nc2cc(Cl)c(Cl)cc2nc1/C=C/c1ccccc1` [CP-99,711]: the inhibit glucagon binding entry is “micromolar concentrations”.

The test system of a further experiment is rat liver membrane.
Experiment: not given
The conditions noted are these: Collins et al. 1992; cited from earlier work. The source holds these as a separate data set.
In the case of `CN(C)CCCN(C)c1nc2cc(Cl)c(Cl)cc2nc1/C=C/c1ccccc1` [CP-99,711], the inhibit glucagon action result is on record as “micromolar concentrations”.
